# Data as given in patent US20230391752A1, “PYRROLIDINE-3-CARBOXAMIDE DERIVATIVES AND RELATED USES” (Chulalongkorn University, priority 2020, published 2023).
# Columns and labels:
# HBV core protein (Cp149) [1] = target: T1, HBV core protein (Cp149) (Hepatitis B virus genotype D subtype ayw, UniProt P03146); assay: HBV capsid assembly by size exclusion chromatography (SEC); assay type: biochemical; details: 50 μM compound, 15 μM Cp149, 16 hours at 21° C.
# T1 construct: HBV core C-terminally truncated protein (HBV Cp149); made in house
# HBV core protein (Cp149) [2] = target: T1, HBV core protein (Cp149); assay: HBV capsid assembly by electron microscopy (EM); assay type: biochemical; details: 50 μM compound, 15 μM Cp149, negative stain
# HBV capsid = target: T2, HBV capsid (Hepatitis B virus genotype D subtype ayw, UniProt P03146); assay: Mechanistic study in stably HBV expressed HepG2.2.15 cells (capsid, encapsidated DNA/RNA, core protein blots); assay type: cell-based; details: HepG2.2.15, 6 days; for HBV capsid (formation of DNA- and RNA-devoid capsid): various concentrations; for Intracellular HBV core protein level: western blot
# T2 construct: expressed in transfected cells; host or cells: HepG2.2.15
# Procedure: The stably HBV expressed HepG2.2.15 cells were treated with test compounds, at various concentrations in culture medium, at 37° C. for three days. After that the medium was removed and fresh medium containing the compound was added to the cells for another 3 days. After 6 days of treatment, cellular lysates from the treated cells were assessed by non-denatured agarose gel electrophoresis. HBV capsid was detected by western blot with monoclonal anti-HBV core. Encapsidated HBV DNA and RNA were detected by southern blot and northern blot. Intracellular HBV core protein was assessed by western Blot with a monoclonal mouse anti-HBV core. β-actin protein assessed by western blot was used as an internal control.
# HBV genotype D = assay: HBV-infected primary human hepatocytes (PHH); assay type: cell-based, Hepatitis B virus; details: for cccDNA establishment in PHH: treatment scheme 1, southern blot; for HBeAg in PHH / HBsAg in PHH: treatment scheme 1; for HBV DNA in PHH: treatment scheme 1 (compound added simultaneously with infection media, 6 days)
# Procedure: Primary human hepatocytes (PHH) were infected with HBV genotype D produced from HepG2.2.15 cell line on day 1 after plating. Subsequently, the PHH were treated with various concentrations of compounds into 2 different treatment schemes. For treatment scheme 1, the compounds were added into PHH simultaneously with infection media, and incubated for additional 6 days. For treatment scheme 2, the compounds were added into PHH at day 3 after infection, and further incubated for 6 days. After treatment, the cell culture supernatants were collected for the determinations of HBV DNA by qPCR, pgRNA by RT-PCR, HBsAg and HBeAg by ELISA, and cell viability by CCK-8. The cells were harvested for detection of intracellular cccDNA by southern blot.
# HBV [3] = assay: In vitro anti-HBV activity in HepG2.2.15 cell line (intracellular HBV DNA by qPCR at 1 μM); assay type: cell-based; details: Hepatitis B virus, 144 h; HepG2.2.15 cells, 1 μM compound, 6 days, intracellular HBV DNA as percentage compared to vehicle control (0.5% DMSO)
# Outline: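 Intracellular HBV DNA was quantified by qPCR and given as percent of vehicle (0.5% DMSO), grouped into letter ranges. Stably transfected HepG2.2.15 cells had 6 days of exposure to 1 μM compound, with medium and compound renewed after day 3.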
# HBV [4] = assay: Effect on intrahepatic HBV DNA levels in HepG2.2.15 cells (EC50); assay type: cell-based; details: Hepatitis B virus, 144 h, 6 days, intrahepatic HBV DNA by qPCR, read-out: Anti-HBV DNA (EC50)
# Procedure: HepG2.2.15 cells were treated with compounds, at various concentrations in 10% FCS containing medium, at 37° C. for three days. After that the medium was removed and fresh medium containing the compound was added to the cells for another 3 days. After 6 days of treatment, intrahepatic HBV DNA from cell lysates were isolated. Then qPCR reaction of DNA was performed to measure total HBV DNA levels using specific primer set. The fifty-percent effective concentrations (EC50) for HBV DNA inhibition, relative to no drug controls, was determined using nonlinear fitting curve model. EC50 ranges for HBV DNA inhibition were as follows: A>0.3 μM, B=0.05-0.3 μM, C<0.05 μM (Table B).
# [5] = Cytotoxicity (MTT) in HepG2.2.15 cells; assay type: cell-based; details: human, 6 days treatment, read-out: HepG2.1.15 cytotoxicity (CC50)
# Procedure: HepG2.2.15 cells were seeded onto 96-well culture plate and allowed to adhere for 24 hours. The cells were treated with various concentrations of the compounds for 6 days. After treatment, the culture media were discarded and further incubated with serum-free media containing […] of 3-(4,5-dimethylthiazol-2-yl)-2,5-diphenyl tetrazolium bromide (MTT) for 2 hour. The resulting formazan crystals were completely dissolved in dimethyl sulfoxide (DMSO), and then measured absorbance at 570 nm using microplate reader. The concentrations of compounds producing 50% cell death (CC50) were determined from a fitting of concentration-response curve (% cell viability versus concentration) to a four-parameter equation.
# [6] = Pharmacokinetic study in rats; assay type: in vivo, male Sprague-Dawley rats; details: for CL (mL/min/kg) Rat / Vd: IV 0.2 to 0.5 mg/kg; for F (%) Rat: PO 0.3 to 2.0 mg/kg; for Vd / half-life: male, Sprague-Dawley, plasma, rat; for Vd: read-out: Vd,ss (L/kg) Rat; for half-life: read-out: t1/2 (h) Rat (converted)
# Procedure: (§1) Test compounds were administered to male Sprague-Dawley rats and male Beagle dogs by oral (PO) and intravenous (TV) administration. For TV dosing, test compounds were dosed at 0.2 to 0.5 mg/kg using a formulation of 10% dimethyl sulfoxide in 20% hydroxypropyl beta-cyclodextrin solution via IV bolus. For PO dosing, test compounds were dosed at 0.3 to 2.0 mg/kg using a formulation of 40% polyethylene glycol 400 in water via oral gavage. Blood samples were collected at pre-dose and various time points up to 24 hours post-dose, and centrifuged to obtain plasma samples. The plasma concentrations of test compounds were quantified by LC-MS/MS methods. The relevant pharmacokinetic parameters (Table D) were calculated via non-compartmental analysis using WinNonlin (Phoenix™, version 8.3).
# [7] = Pharmacokinetic study in dogs; assay type: in vivo, male Beagle dogs; details: for F (%) Dog: PO 0.3 to 2.0 mg/kg; for half-life / clearance / Vd: male, Beagle, dog, plasma; for half-life: read-out: t1/2 (h) Dog (converted); for clearance / Vd: IV 0.2 to 0.5 mg/kg; for clearance: read-out: CL (mL/min/kg) Dog; for Vd: read-out: Vd,ss (L/kg) Dog
# Procedure: as §1
# HBV genotypes A to D = assay type: cell-based; details: transfected HepG2 cells
# [8] = target: T3, HBV construct U95551 (wild-type) (Hepatitis B virus genotype D subtype ayw, UniProt P03146); assay type: cell-based; details: relative to the wild type construct
# T3 construct: expressed in transfected cells; host or cells: HepG2
# [9] = target: HBV core protein variant F23Y (Hepatitis B virus genotype D subtype ayw, UniProt P03146, F23Y); assay: Anti-HBV activity in core protein variants: F23Y; assay type: cell-based; details: relative to the wild type construct
# [10] = target: HBV core protein variant D29G (Hepatitis B virus genotype D subtype ayw, UniProt P03146, D29G); assay: Anti-HBV activity in core protein variants: D29G; assay type: cell-based; details: relative to the wild type construct
# [11] = target: HBV core protein variant T33N (Hepatitis B virus genotype D subtype ayw, UniProt P03146, T33N); assay: Anti-HBV activity in core protein variants: T33N; assay type: cell-based; details: relative to the wild type construct
# [12] = target: HBV core protein variant I105T (Hepatitis B virus genotype D subtype ayw, UniProt P03146, I105T); assay: Anti-HBV activity in core protein variants: I105T; assay type: cell-based; details: relative to the wild type construct
# [13] = target: HBV core protein variant T109I (Hepatitis B virus genotype D subtype ayw, UniProt P03146, T109I); assay: Anti-HBV activity in core protein variants: T109I; assay type: cell-based; details: relative to the wild type construct
# [14] = target: HBV core protein variant T109M (Hepatitis B virus genotype D subtype ayw, UniProt P03146, T109M); assay: Anti-HBV activity in core protein variants: T109M; assay type: cell-based; details: relative to the wild type construct
# [15] = target: HBV core protein variant Y118F (Hepatitis B virus genotype D subtype ayw, UniProt P03146, Y118F); assay: Anti-HBV activity in core protein variants: Y118F; assay type: cell-based; details: relative to the wild type construct
SMILES,Size of induced capsids based on SEC retention times (HBV core protein (Cp149) [1]),Capsid morphology by EM (HBV core protein (Cp149) [2]),HBV capsid (formation of DNA- and RNA-devoid capsid) (HBV capsid),Intracellular HBV core protein level (HBV capsid),cccDNA establishment in PHH (HBV genotype D),activity at 1 µM (HBV [3]),EC50 (HBV [4]),CC50 at 6 days [5],HBeAg in PHH (HBV genotype D),HBsAg in PHH (HBV genotype D),HBV DNA in PHH (HBV genotype D),CL (mL/min/kg) Rat [6],F (%) Rat [6],Vd [6],half-life [6],F (%) Dog [7],half-life [7],clearance [7],Vd [7],"Fold change in EC50, U95551 (wild-type) [8]",also measured
"COC(=O)C1=C(C)NC(c2ncc(F)cc2F)=N[C@H]1c1ccc(F)cc1Cl [BAY 41-4109, reference compound]","larger in size, as compared to NVR 3-778",the capsids appeared larger and misassembled with an irregular shape,–,–,–,–,–,–,–,–,–,–,–,–,–,–,–,–,–,–,Formation of capsids (SEC) (HBV core protein (Cp149) [1]): increased the formation of capsids
"C=C1[C@H](CO)[C@@H](O)C[C@@H]1n1cnc2c(=O)[nH]c(N)nc21 [Entecavir, entecavir, reference compound]",–,–,had no effects,had no effects,had no effect on cccDNA establishment,–,–,–,–,–,–,–,–,–,–,–,–,–,–,–,–
"C[C@H]1[C@@H](C(=O)Nc2cc(F)c(F)c(F)c2)CCN1C(=O)c1[nH]c2ccccc2c1Cl [Example 42, (2S,3S)-1-(3-chloro-1H-indole-2-carbonyl)-2-methyl-N-(3,4,5-trifluorophenyl)pyrrolidine-3-carboxamide]",capsid retention times between BAY 41-4109 and NVR 3-778,resulted in larger but normal shape spheres,dose-dependently accelerated formation of DNA- and RNA-devoid capsid,had no effect on intracellular HBV core protein level,inhibited,< 45%,0.05 to 0.3 µM,> 25 µM,inhibited,inhibited,inhibited,–,–,–,–,–,–,–,–,–,–
"Cc1ncnc(C)c1-c1ccc(C(=O)N2CC[C@H](C(=O)Nc3ccc(F)c(Cl)c3)[C@@H]2C)[nH]1 [Example 104, (2S,3S)—N-(3-chloro-4-fluorophenyl)-1-(5-(4,6-dimethylpyrimidin-5-yl)-1H-pyrrole-2-carbonyl)-2-methylpyrrolidine-3-carboxamide]",induced capsids similar in size to NVR 3-778,showed similar results as for NVR 3-778,dose-dependently accelerated formation of DNA- and RNA-devoid capsid,had no effect on intracellular HBV core protein level,–,< 45%,< 0.05 µM,10 to 25 µM,–,–,–,12.3 mL/min/kg,66%,1.93 L/kg,1.9 h,53%,14.2 h,1.5 mL/min/kg,1.67 L/kg,–,–
"Cc1cc(NC(=O)[C@H]2CCN(C(=O)c3ccc(-c4c(C)ncnc4C)[nH]3)[C@H]2C)ccc1F [Example 149, (2S,3S)-1-(5-(4,6-dimethylpyrimidin-5-yl)-1H-pyrrole-2-carbonyl)-N-(4-fluoro-3-methylphenyl)-2-methylpyrrolidine-3-carboxamide]",induced capsids similar in size to NVR 3-778,–,–,–,inhibited,< 45%,< 0.05 µM,10 to 25 µM,inhibited,inhibited,inhibited,20.0 mL/min/kg,44%,2.92 L/kg,6.5 h,63%,4.5 h,5.1 mL/min/kg,1.3 L/kg,B (B=1-5),"Anti-HBV activity across HBV genotypes (HBV genotypes A to D): effective across all HBV genotypes tested (A to D); Fold change in EC50, F23Y [9]: C (C=5-15); Fold change in EC50, D29G [10]: B (B=1-5); Fold change in EC50, T33N [11]: D (D>15); Fold change in EC50, I105T [12]: B (B=1-5); Fold change in EC50, T109I [13]: A (A<1); Fold change in EC50, T109M [14]: A (A<1); Fold change in EC50, Y118F [15]: A (A<1)"
"CCOC(=O)C1=C(CN2CCOCC2)NC(c2nccs2)=NC1c1ccc(F)cc1Br (stereo not shown) [GLS4, reference compound]",–,–,induced formation of DNA- and RNA-devoid capsid,reduced intracellular HBV core protein level in the concentration-dependent manner,–,–,–,–,–,–,–,–,–,–,–,–,–,–,–,B (B=1-5),"Fold change in EC50, F23Y [9]: C (C=5-15); Fold change in EC50, D29G [10]: B (B=1-5); Fold change in EC50, T33N [11]: D (D>15); Fold change in EC50, I105T [12]: B (B=1-5); Fold change in EC50, T109I [13]: C (C=5-15); Fold change in EC50, T109M [14]: B (B=1-5); Fold change in EC50, Y118F [15]: B (B=1-5)"
